Measured values reported in article PMC11547840, “The Intestinal Barrier Protective Effect of Indole Aldehyde Derivatives on Acute Toxoplasma gondii Infection” (Molecules, 2024).
Entries after “also recorded” stand apart in the source; their conditions may differ. Like-named read-outs stand apart in the source and are kept apart here.

Columns and labels:
[1] = tested on: small intestine of mice with T. gondii infection; test: Small intestine and serum biochemical parameters (GSH, MDA, NO, DAO) of T. gondii-infected mice; format: in vivo; conditions: 100 mg/kg oral once a day for 6 days
Text: (§1) For the in vivo study, KM female mice were divided into groups consisting of six animals each and then intraperitoneally injected with 2 × 10^3 tachyzoites. […] On the last day, heart blood samples were collected after anesthesia to separate the serum, and after mice were sacrificed by cervical dislocation, mice were dissected to obtain organs and tissues. The tachyzoites were harvested from mice peritoneal cavities to determine the level of tachyzoite proliferation. The peritoneal fluid was collected twice; the first time, it was centrifuged at 500 rpm for 10 min, then the supernatant was centrifuged at 2500 rpm for 20 min, discarded, and the worm precipitate was collected at the bottom, and mixed with an appropriate amount of physiological saline. A total of 10 μL of T. gondii suspension was mixed with 10 μL of 4% Trypan blue staining solution in a 1.5 mL centrifuge tube.
The GSH was measured according to the method in [58]. The intestine homogenate was mixed with half volume trichloroacetic acid (20%, w/v) and centrifuged at 4000 rpm for 10 min. Then, phosphate buffer (phosphate 0.3 mol/L, pH 7.5) and 5,5-dithio-bis-(2-nitrobenzoic acid) (0.04%, w/v) were added to the separated supernatant and mixed thoroughly. After 5 min at room temperature, the absorbance was measured at 412 nm.
MDA was measured by the standard method with minor modifications. The small intestine homogenate supernatant was mixed with thiobarbituric acid (0.5%, w/v) and heated in boiling water bath for 1 h, then cooled quickly and centrifuged at 6000 rpm for 10 min; the absorbance of pink colored supernatant was measured at 532 nm. Tetraethoxypropane replaced the intestine homogenate in the standard sample.
(§2) The Greiss method was used to determine the NO content in small intestine tissues and cells. The above small intestine tissue homogenate or IEC-6 cell supernatant was centrifuged at 4 °C and 1500 rpm for 15 min, and the absorbance was measured at 540 nm by adding equal amounts of Griess A and B reagents to the supernatant. The standard used in the NO standard curve was sodium nitrite, and the NO content in the samples was calculated by substituting the absorbance values of the samples into the regression equation of the standard curve.
The DAO evaluation experimental method of Xin Y et al. was adopted, in which mouse heart blood was taken from a 1.5 mL centrifuge tube and centrifuged at 4 °C and 3000× g for 10 min, and the upper layer of serum was taken for measurement. Another 1.5 mL tube was taken and 600 μL of phosphate buffer, 20 μL of horseradish peroxidase, 20 μL of dianisidine dihydrochloride hydrochloride, and 20 μL of 1,5-pentanediamine hydrochloride were added. After that, 100 μL of serum samples to be tested was added, mixed well and heated at 37 °C for 18 h. The absorbance was measured at 436 nm. […]. A total of 100 μL of distilled water was used in the blank tube instead of serum, and the standard used in the standard curve was diamine oxidase. The absorbance value of the experimental samples was substituted into the regression equation of the standard curve to calculate the content of DAO in the serum samples.

T. gondii [2] = test: In vivo anti-T. gondii activity, peritoneal tachyzoite count by Trypan Blue; set-up: species or system Toxoplasma gondii; conditions: 100 mg/kg oral once a day for 6 days; for Number of Tachyzoites: peritoneal cavity of KM female mice, i.p. 2 × 10^3 tachyzoites, Toxo 12.28 ± 0.39
Text: as §1

T. gondii [3] = test: MTT anti-T. gondii activity in T. gondii-infected IEC-6 cells; format: cell-based, Toxoplasma gondii; conditions: for IC50: MTT, concentration required to reduce T. gondii-infected IEC-6 cell growth by 50%, 24 h treatment, read-out: IC50 in T. gondii
Protocol: (§3) Anti-T. gondii activity and cytotoxicity of indole derivatives in vitro were evaluated by MTT assay (Solarbio, Beijing, China) using a slightly modified version of the procedure of Shang et al.. IEC-6 cells were seeded onto the 96-well plates (2 × 10^3/well) for 24 h to obtain the full monolayer, and then the host cells were infected with T. gondii (parasite: cell = 3:1) in complete medium. After 24 h, cells were washed to remove any extra parasites and then incubated with different concentrations (20, 200, 500 and 1000 μm) of […]. […] After 24 h of treatment, MTT solution was added directly to the culture wells and then incubated for 4 h at 37 °C. The optical absorbance was measured at a wavelength of 548 nm using a microplate reader (SpectraMax M2, Molecular Devices, Sunnyvale, CA, USA). Giemsa staining was used to observe the changes in cell morphology and the proliferation of T. gondii-infected cells. IEC-6 (1 × 10^5 cells/well) was inoculated into 24-well plates containing round coverslip, and after the cells were attached to the wall, T. gondii (3 × 10^5 cells/well) was added to infect the cells for 3 h. After the culture medium was discarded, PBS was added to remove the uninvaded tachyzoites. […] After discarding the supernatant, the cells were washed with PBS and completely aspirated, and then fixed by adding 0.5 mL of methanol for 3 min. Giemsa staining solution was added and shaken slightly to make the staining uniform. Coverslips were rinsed with distilled water to replace the staining solution, and finally, the slices were sealed with neutral gum and air-dried.

IEC-6 cells = test: MTT cytotoxicity assay in IEC-6 cells; format: cell-based; conditions: MTT, concentration required to reduce IEC-6 cell growth by 50%, 24 h treatment, read-out: IC50 in IEC-6 Cells
Protocol: as §3

[4] = tested on: IEC-6 cells with T. gondii infection; test: NO level of T. gondii-infected IEC-6 cells (Griess); format: cell-based; conditions: Griess method, cell supernatant; compared with Toxo group
Protocol: as §2

[5] = Small intestine histology and pathology scoring of T. gondii-infected mice; format: in vivo; conditions: 100 mg/kg oral once a day for 6 days
Text: as §1
The histology research includes apparent pathological change score, H&E staining and histopathological scores of tissue, as shown in Table 4 and Table 5. In detail, the obtained small intestine tissues were fixed in formalin solution and embedded in paraffin wax after gradual dehydration with different concentrations of ethanol. The paraffin fast was sectioned to a thickness of 5 μm, rehydrated and stained with hematoxylin and eosin, respectively, and finally permeabilized with xylene and sealed with neutral gum. A light microscope was used to observe and collect pictures, and the degree of damage to the small intestinal tissues was assessed according to Chiu’s six-grade scale.

[6] = Small intestine function of T. gondii-infected mice (weight, food utilization, carmine excretion); format: in vivo; conditions: 100 mg/kg oral once a day for 6 days
Protocol: On the last day, heart blood samples were collected after anesthesia to separate the serum, and after mice were sacrificed by cervical dislocation, mice were dissected to obtain organs and tissues. The tachyzoites were harvested from mice peritoneal cavities to determine the level of tachyzoite proliferation. The peritoneal fluid was collected twice; the first time, it was centrifuged at 500 rpm for 10 min, then the supernatant was centrifuged at 2500 rpm for 20 min, discarded, and the worm precipitate was collected at the bottom, and mixed with an appropriate amount of physiological saline. […] Mouse food intake and body weight were recorded daily for six days during the experiment and were used to record growth performance data. At the end of the experiment, body weight gain, food intake and food utilization of mice were calculated as Equation (1). […] A solution containing 3% carmine dye and 0.5% carboxymethyl cellulose was prepared. On the fifth day of T. gondii infection, each mouse was transferred to a separate cage, with the bottom of the cage completely covered with white paper to facilitate the detection of cochineal in the feces after red feces were eliminated. […] During the experimental period, the mice were free to move around, and eat and drink freely without any external interference, as described.

T. gondii [7] = test: Giemsa staining: cell infection rate and intracellular tachyzoites in IEC-6 cells; format: cell-based, Toxoplasma gondii; conditions: IEC-6 cells infected 3 h, drug 12 h at the IC50 value of the cells; for cell infection rate: Toxo group 49.2%; for number of intracellular tachyzoites: Toxo group 254
Protocol: as §3

[8] = tested on: mice with T. gondii infection; test: Survival rate of mice with T. gondii infection; format: in vivo; conditions: acute infection; Toxo group died from day seven
Protocol: All data were expressed as mean ± standard deviation (S.D.) in triplicate. Statistical analyses and graphs were performed using SPSS 16.0 software (SPSS Inc., Chicago, IL, USA) and GraphPad Prism 5.0 (GraphPad Software Inc., San Diego, CA, USA). The method of Kaplan and Meier was used to compare the survival rates of the studied groups. A value of p < 0.05 was considered statistically significant.

In the case of Cn1c(-c2ccccc2)c(C=O)c2ccccc21 [A9, 1-Methyl-2-phenylindole-3-carbaldehyde], the “MDA level in small intestine tissue” value [1] is reported as “effective inhibition of the MDA increase”, the “NO level in small intestine tissue” value [1] is reported as “mitigate the elevated levels” and the “Inhibition Rate” value (T. gondii [2]; mice peritoneal T. gondii, (untreated group − treated group)/untreated group × 100%) is reported as 28.1%. The “Number of Tachyzoites” value (T. gondii [2]) was 8.83 ± 0.39 ×10^6, the “Selective Index (SI)” value (T. gondii [3]; IC50 in IEC-6 cells/IC50 in T. gondii-infected IEC-6 cells) was 1.1 and the IC50 (T. gondii [3]; Toxoplasma gondii) was 366 ± 8.8 µM. The IC50 (IEC-6 cells; Rattus norvegicus) was 408.4 ± 3.5 µM, the “NO level of IEC-6 cells with T. gondii infection” value [4] was “lowest NO release levels; also recorded: significantly decreased the release of intracellular nitric oxide” and the “intestinal barrier damage induced by T. gondii infection (histology, H&E)” value [5] was “demonstrate potential in ameliorating intestinal barrier damage”. For the same compound, the “food utilization efficiency of mice with T. gondii infection” value [6] was “enhanced food utilization efficiency”, the “weight increment of mice with T. gondii infection” value [6] was “did not affect this parameter, except for derivative A9” and the cell infection rate (T. gondii [7]) was 18.0%. The “number of intracellular tachyzoites” value (T. gondii [7]) was “more effective than Spy”.
With Spiramycin [Spy, reference compound] the “MDA level in small intestine tissue” value [1] was “effective inhibition of the MDA increase”, the “survival of mice with T. gondii infection” value [8] was “extended the survival time” and the “Number of Tachyzoites” value (T. gondii [2]) was 9.22 ± 1.73 ×10^6. The IC50 (T. gondii [3]) was 219 ± 6 µM, the IC50 (IEC-6 cells) was 246 ± 5.9 µM and the “intestinal barrier damage induced by T. gondii infection (histology, H&E)” value [5] was “showed no abnormalities in the small intestinal tissues”. For the same compound, the cell infection rate (T. gondii [7]) was 27.7% and the “number of intracellular tachyzoites” value (T. gondii [7]) was 173.
